From patent US20120064008A1, “COMPOSITIONS FOR THE TREATMENT OF METASTATIC CANCER AND METHODS OF USE THEREOF” (priority 2009, published 2012) come the findings set out here.

Structures are written as SMILES. Entries after “also recorded” stand apart in the source; their conditions may differ.

The subject of one assay is DU-145TR cells. Briefly: Gene expression profiling, DU-145 and DU-145TR. The conditions noted are these: DU-145TR vs DU-145, 2-fold cut off. Type of assay: cell-based, human. The text has this:
In order to dissect the mechanisms underlying the anti-tumor effects of benzimidazoles in these cells, gene expression profiling was done comparing albendazole treated DU-145 and DU-145TR cells.

For the next assay, the system named is PC-3MLN4 cells. The experiment in a line: Normalized mitotic index (histone H3 phospho-Serine-28), PC-3MLN4. Type of assay: cell-based. The conditions noted are these: Homo sapiens, read-out: Normalized mitotic index PC-3MLN4, at 1 μM; normalized against vehicle-treated cells. The text has this:
The mitotic index for each agent was normalized against those obtained from vehicle-treated cells, and compared with the activity of paclitaxel, a known inducer of mitotic arrest.

The subject of the next assay is AT6.1 lung metastases. The experiment in a line: Ki-67 and caspase-3 staining of lung tumor sections. Type of assay: in vivo, mice. The conditions noted are these: 50 mg/kg, combination carrier; FIG. 10. The procedure:
To investigate whether benzimidazoles treatment affects cell proliferation and apoptosis in vivo, immunohistochemical analysis of the cell proliferation marker, Ki-67 and of the apoptotic marker, activated caspase-3 was performed on mouse lung sections from each group.
Tumor cells in the lungs of rats treated with saline and 50 mg/kg fenbendazole (formulation in the combination carrier) were analyzed by Ki-67 and caspase-3 antibody staining. Tissues were collected and fixed in formalin before processed for paraffin embedding. Tissue sections were then processed for Ki-67 and caspase-3 antibody staining, using the protocol established at Dana Farber Cancer Institute/Harvard Cancer Center Research Pathology Core. At least five random 200× magnification images were photographed from each animal. Distinct and strong nuclear Ki67 staining of tumor cells were counted using Image J software (NIH, Bethesda, […].).

`CCCSc1ccc2nc(NC(=O)OC)[nH]c2c1` [Albendazole, albendazole]: the “expression of ER stress signaling genes (ATF-2, ATF-3, HERPUD1, CHOP, ANKRD1, GADD45alpha)” value with DU-145TR cells is on record as “differentially expressed”. Besides, the fold induction at 1 µM in the assay on PC-3MLN4 cells lay in the range of 1.8 to 2. As for `COC(=O)Nc1nc2ccc(Sc3ccccc3)cc2[nH]1` [Fenbendazole, fenbendazole], the “tumor cell proliferation (Ki67 staining) compared to control” value with AT6.1 lung metastases is on record as “less proliferation of tumor cells; also recorded: marked reduction in tumor cell proliferation”.
